Measurements as given in patent US5045537A, “Hydrophilic renin inhibitors, their preparation and use” (Sandoz Ltd., priority 1987, dated 1991).

Legend:
[1] = tested on: FeLV; settings: 30 mg treatment over 14 days; cited from earlier work
[2] = biological target: T1, human plasma renin (Homo sapiens, UniProt P00797); experiment: Antibody-trapping method of Poulsen and Jorgensen, human plasma renin activity; type: biochemical; settings: antibody trapping test
T1 construct: human plasma renin activity; from tissue; host or cells: human plasma
T1 sequence (P00797 67-406): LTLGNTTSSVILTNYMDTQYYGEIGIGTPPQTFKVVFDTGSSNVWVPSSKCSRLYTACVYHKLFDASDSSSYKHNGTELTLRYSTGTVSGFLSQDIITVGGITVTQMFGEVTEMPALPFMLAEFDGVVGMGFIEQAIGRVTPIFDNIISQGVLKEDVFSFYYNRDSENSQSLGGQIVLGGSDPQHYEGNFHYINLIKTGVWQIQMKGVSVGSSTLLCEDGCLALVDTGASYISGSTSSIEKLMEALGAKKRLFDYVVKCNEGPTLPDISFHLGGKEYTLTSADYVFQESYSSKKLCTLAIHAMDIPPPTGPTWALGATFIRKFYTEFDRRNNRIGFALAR
Text: In the antibody-trapping method of K. Poulsen and J. Jorgensen (J. Clin. Endocrin. Metab. 39, [1974] 816-825), they inhibit human plasma renin activity at a concentration of 10^-5 M to 10^-11 M.

Row | SMILES | cure [1] | reduction of FeLV-titres by a factor [1] | IC50 [2] [nM] | highest inhibiting concentration [2] [nM/l] | lowest inhibiting concentration [2]
1 | Cc1cn([C@H]2C[C@H](N=[N+]=[N-])[C@@H](CO)O2)c(=O)[nH]c1=O [3'-azido-3'-deoxy-thymidine] | no cure was achieved | 10 |  |  | 
2 | CCCC[C@H](NC(=O)[C@H](Cc1cccs1)NC(=O)COCCOCCOCCOC)C(=O)N[C@@H](CC1CCCCC1)[C@@H](O)CC(=O)N[C@@H](CC(C)C)C(=O)NCc1ccccn1 [Example 46, 3EG-Thala-Nle-Chatin-Leu-α-Pic] |  |  | 1.5 | 15 | 0,15 nM/l
